Test results published in article PMC10455239, “Antimicrobial, Cytotoxic, and α-Glucosidase Inhibitory Activities of Ethanol Extract and Chemical Constituents Isolated from Homotrigona apicalis Propolis—In Vitro and Molecular Docking Studies” (Life, 2023).
≈ marks a conversion by molar mass, not a printed value. Like-named read-outs stand apart in the source and are kept apart here.

Assays:
[1] = test system: HepG-2 (human hepatoma); assay: Cytotoxicity assay (MTT); format: cell-based; details: read-out: IC50 Hep-G2
Procedure: (§1) The cytotoxic assays were evaluated in triplicate against three cancer cell lines, namely KB (epidermal carcinoma), A-549 (human lung adenocarcinoma), and HepG-2 (human hepatoma) (ATCC), with a modification of the previously published method. The cells were cultured in Dulbecco’s D-MEM medium (Gibco, Life Technologies Corporation, Grand Island, NY, USA), supplemented with 10% fetal calf serum (Sigma-Aldrich, St. Loius, MO, USA), L-glutamine (2 mM) (Sigma-Aldrich, St. Loius, MO, USA), penicillin G (100 UI/mL), and streptomycin (100 μg/mL) (Sigma-Aldrich, St. Loius, MO, USA). The compound solutions were prepared in DMSO, and the cytotoxic assays were conducted in 96-well microtiter plates against the cancer cells (3 × 10^5 cells/mL concentration). After 48 h incubation at 37 °C in an air/CO2 (95:5) atmosphere, with or without isolated compounds, MTT reagent was added to each well (0.5 mg/mL). The cell growth was assessed by measuring the colorimetric of formazan at 570 nm using a microplate reader. […] Ellipticine was used as a positive reference.

[2] = test system: A-549 (human lung adenocarcinoma); assay: Cytotoxicity assay (MTT); format: cell-based; details: read-out: IC50 A-549
Procedure: as §1

[3] = test system: KB (epidermal carcinoma); assay: Cytotoxicity assay (MTT); format: cell-based; details: read-out: IC50 KB
Procedure: as §1

[4] = test system: Staphylococcus aureus; assay: Antimicrobial activity, broth microdilution; format: cell-based; details: read-out: IC50 S. aureus
Procedure: (§2) The antimicrobial activity assay was performed using the broth microdilution method. Dimethyl sulfoxide (DMSO) was used for the preparation of compound solutions at concentrations of 256 μg/mL, 64 μg/mL, 16 μg/mL, 4 μg/mL, and 1 μg/mL. Three strains of Gram-positive bacteria (Staphylococcus aureus, Bacillus cereus, and Lactobacillus fermentum); three strains of Gram-negative bacteria (Salmonella enterica, Escherichia coli, and Pseudomonas aeruginosa), and fungus Candida albicans (obtained from the American Type Culture Collection (ATCC)) were used for the test. Ampicillin, Cefotaxim, and Nystatin were used as positive controls for the Gram (+) bacterial and Gram (−) bacterial strains and C. albicans, respectively. The activity of the isolated compounds was expressed as an IC50 value (half-maximal inhibitory concentration). The IC50 values were calculated using the program […].

[5] = test system: Salmonella enterica; assay: Antimicrobial activity, broth microdilution; format: cell-based; details: Gram (−) strain; for IC50: Salmonella enterica, read-out: IC50 S. enterica
Procedure: as §2

[6] = test system: Escherichia coli; assay: Antimicrobial activity, broth microdilution; format: cell-based; details: for IC50: Escherichia coli, read-out: IC50 E. coli
Procedure: as §2

[7] = test system: Candida albicans; assay: Antimicrobial activity, broth microdilution; format: cell-based; details: Candida albicans, read-out: IC50 C. albicans
Procedure: as §2

[8] = test system: Lactobacillus fermentum; assay: Antimicrobial activity, broth microdilution; format: cell-based; details: read-out: IC50 L. fermentum
Procedure: as §2

[9] = test system: Pseudomonas aeruginosa; assay: Antimicrobial activity, broth microdilution; format: cell-based; details: for IC50: Pseudomonas aeruginosa, read-out: IC50 P. aeruginosa
Procedure: as §2

[10] = test system: Bacillus cereus; assay: Antimicrobial activity, broth microdilution; format: cell-based; details: read-out: IC50 B. cereus
Procedure: as §2

[11] = target: T1, α-glucosidase (Saccharomyces cerevisiae, UniProt P53341); assay: biochemical
T1 construct: purchased Sigma-Aldrich G0660
Procedure: An assay for the α-glucosidase inhibitory activity was carried out by a modification of the published method. Briefly, solutions of α-glucosidase (Saccharomyces cerevisiae, G0660, Sigma-Aldrich, St. Louis, MO, USA) and p-nitrophenyl α-D-glucopyranoside (Sigma-Aldrich, St. Louis, MO, USA) were prepared in a phosphate buffer (100 mM, pH 6.8, Sigma-Aldrich, St. Louis, MO, USA). […] The compound solution (2 μL) and 40 µL of enzyme solution (0.5 U/mL) in 120 µL phosphate buffer were mixed. After 5 min of preincubation, 20 µL of 10 mM p-nitrophenyl α-D-glucopyranoside prepared in phosphate buffer was added, and the reaction mixture was incubated for 30 min at 37 °C. The reaction was quenched by the addition of 80 µL of 0.2 M Na2CO3. The absorbance of the released p-nitrophenol was measured at 410 nm using a Biotek reader. The % inhibition was calculated using the following equation:Inhibition (%) = [1 − (Asample/Acontrol)] ∗ 100
The IC50 values of the isolated compounds were calculated using the program Table Curve.

[12] = test system: Gram (+) bacterial strains; assay: Antibacterial activity, range over strains; format: cell-based; details: range over strains and compounds
Procedure: as §2

[13] = test system: KB, HepG-2, and A-549 cancer cell lines; assay: Cytotoxicity assay (MTT), range over the three cell lines; format: cell-based; details: range over three cell lines and both xanthones
Procedure: as §1

[14] = target: α-glucosidase; details: cited from earlier work
[15] = IC50 (Table S1), Table S1, α-glucosidase
[16] = IC50 α-Glucosidase Inhibitory Activity, p-nitrophenyl α-D-glucopyranoside, pH 6.8, 37 °C
[17] = Table S1, α-glucosidase, read-out: IC50 (Table S1) (converted)

T1 sequence (P53341 whole entry): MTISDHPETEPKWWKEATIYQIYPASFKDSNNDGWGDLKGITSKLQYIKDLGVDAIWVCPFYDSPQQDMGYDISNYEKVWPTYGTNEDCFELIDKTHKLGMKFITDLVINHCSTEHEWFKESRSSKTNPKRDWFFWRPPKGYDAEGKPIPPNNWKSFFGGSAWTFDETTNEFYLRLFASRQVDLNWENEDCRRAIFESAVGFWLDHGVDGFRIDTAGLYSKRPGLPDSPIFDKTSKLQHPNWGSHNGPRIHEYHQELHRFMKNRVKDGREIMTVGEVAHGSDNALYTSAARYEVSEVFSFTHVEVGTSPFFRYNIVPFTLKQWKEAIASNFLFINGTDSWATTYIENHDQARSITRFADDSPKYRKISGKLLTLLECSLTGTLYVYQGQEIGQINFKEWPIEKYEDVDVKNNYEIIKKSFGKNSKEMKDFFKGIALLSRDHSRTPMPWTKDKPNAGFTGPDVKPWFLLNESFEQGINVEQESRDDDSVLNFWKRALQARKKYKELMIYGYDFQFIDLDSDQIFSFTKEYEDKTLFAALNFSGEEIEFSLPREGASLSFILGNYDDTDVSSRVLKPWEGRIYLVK

Row | Compound | IC50 ([1]; HepG2, 48 h) [µg/mL] | IC50 ([2]; A549, 48 h) [µg/mL] | IC50 ([3]; 48 h) [µg/mL] | IC50 [4] [µg/mL] | IC50 [5] [µg/mL] | IC50 [6] [µg/mL] | IC50 [7] [µg/mL] | IC50 [8] [µg/mL] | IC50 [9] [µg/mL] | IC50 [10] [µg/mL] | IC50 [11, 15] [µM] | IC50 [11, 16] [µM] | IC50 ([1]; HepG2, MTT, 48 h incubation) [µg/mL] | IC50 ([2]; A549, MTT, 48 h incubation) [µg/mL] | IC50 ([3]; MTT, 48 h incubation) [µg/mL] | IC50 [11, 17] [µM] | IC50 [12] [µg/mL] | IC50 ([4]; Gram (+) strain) [µg/mL] | IC50 ([6]; Gram (−) strain) [µg/mL] | IC50 ([7]; Fungus) [µg/mL] | also measured
1 | CC(C)=CCC[C@H](C(=O)O)[C@@H]1CC[C@]2(C)C3=C(CC[C@@]12C)[C@@]1(C)CC[C@@H](O)C(C)(C)[C@@H]1CC3 [Compound 6, 3α-hydroxytirucalla-8,24-dien-21-oic acid] | 77.7 ± 8.09 (≈ 170 µM) | 78.6 ± 7.69 (≈ 172 µM) | 49.3 ± 5.21 (≈ 108 µM) | > 256 | > 256 | > 256 | > 256 | 62.2 ± 1.24 (≈ 136 µM) | > 256 | 141 ± 4.14 (≈ 308 µM) | > 561 | > 561 |  |  |  |  |  |  |  |  | 
2 | CC1(C)[C@H]2[C@H]3[C@H](CC[C@@]3(C)O)[C@@](C)(O)CC[C@H]21 [Compound 4, 1βH,5βH-aromandendrane-4α,10β-diol] |  |  |  | > 256 | > 256 | > 256 | > 256 | > 256 | > 256 | > 256 |  |  | > 128 | > 128 | 89.1 ± 9.67 (≈ 374 µM) | > 1070 |  |  |  |  | IC50 ([11]; p-nitrophenyl α-D-glucopyranoside, pH 6.8, 37 °C, read-out: IC50 α-Glucosidase Inhibitory Activity): > 1070 µM
3 | CO/N=C(\C(=O)N[C@@H]1C(=O)N2C(C(=O)O)=C(COC(C)=O)CS[C@H]12)c1csc(N)n1 [C, Cefotaxim, reference compound] |  |  |  |  |  |  |  |  |  |  |  |  |  |  |  |  |  |  |  |  | IC50 S. enterica [5]: 0.43 ± 0.05 µg/mL (≈ 0.944 µM); IC50 E. coli ([6]; Gram (−) strain): 0.07 ± 0.02 µg/mL (≈ 0.154 µM); IC50 P. aeruginosa ([9]; Gram (−) strain): 4.34 ± 0.15 µg/mL (≈ 9.53 µM)
4 | CC(C)=CCC/C(C)=C/Cc1c(O)c(CC=C(C)C)c(O)c2c(=O)c3cc(O)ccc3oc12 [Compound 8, cochinchinone A] |  |  |  |  | > 256 |  |  |  |  |  |  |  | 17.4 ± 1.03 (≈ 38.7 µM) | 20.3 ± 1.34 (≈ 45.3 µM) | 29.3 ± 2.07 (≈ 65.3 µM) | 20.2 | 0.56 to 17.3 (≈ 1.25 to 38.6 µM) | 17.3 ± 0.87 (≈ 38.6 µM) | > 256 | 65.3 ± 3.54 (≈ 146 µM) | IC50 ([8]; Gram (+) strain): 8.67 ± 0.38 µg/mL (≈ 19.3 µM); IC50 ([9]; Gram (−) strain): 35.4 ± 2.03 µg/mL (≈ 79 µM); IC50 ([10]; Gram (+) strain): 7.99 ± 0.33 µg/mL (≈ 17.8 µM); IC50 [13]: 7.55 to 29.3 µg/mL (≈ 16.8 to 65.3 µM)
5 | CC(=O)O[C@H]1CC[C@]2(C)[C@H]3CC=C4[C@@H]5CC(C)(C)CC[C@]5(C(=O)O)CC[C@@]4(C)[C@]3(C)CC[C@H]2C1(C)C [Compound 5, acetyl oleanolic acid] | > 128 | > 128 | > 128 | > 256 | > 256 | > 256 | > 256 | 49.9 ± 1.06 (≈ 100 µM) | > 256 | > 256 | 16.9 | 16.9 |  |  |  |  |  |  |  |  | 
6 | COc1c(O)cc2oc3cc(O)c(CC=C(C)C)c(O)c3c(=O)c2c1CC=C(C)C [Compound 9, α-mangostin] |  |  |  |  | 16.3 ± 0.78 (≈ 39.8 µM) |  |  |  |  |  | 4.63 | 4.63 | 12.9 ± 0.68 (≈ 31.4 µM) | 7.55 ± 0.25 (≈ 18.4 µM) | 9.28 ± 0.58 (≈ 22.6 µM) |  | 0.56 to 17.3 (≈ 1.36 to 42.2 µM) | 0.54 ± 0.07 (≈ 1.32 µM) | 7.89 ± 0.34 (≈ 19.2 µM) | 0.56 ± 0.06 (≈ 1.36 µM) | IC50 ([14]; ref 59 (Nam K. Nguyen et al.)): 11.4 ± 2.3 µM; IC50 ([14]; ref 60 (H. W. Ryu et al.)): 5 ± 0.1 µM; IC50 ([8]; Gram (+) strain): 0.56 ± 0.09 µg/mL (≈ 1.36 µM); IC50 ([9]; Gram (−) strain): 1.22 ± 0.09 µg/mL (≈ 2.97 µM); IC50 ([10]; Gram (+) strain): 0.57 ± 0.07 µg/mL (≈ 1.39 µM); IC50 ([11]; IC50 α-glucosidase, equivalent in μM, converted from μg/mL): 4.63 ± 0.24 µM; IC50 [13]: 7.55 to 29.3 µg/mL (≈ 18.4 to 71.3 µM)
